Assay results: PMC7939385, “Disease-associated mutations in inositol 1,4,5-trisphosphate receptor subunits impair channel function” (The Journal of Biological Chemistry, 2021)

How the values were obtained:
[1] = target: T1, WT rIP3R1 (Rattus norvegicus, UniProt C7E1V2); assay: competitive [3H]IP3 radioligand binding on immunoprecipitated receptor; conditions: read-out: apparent EC50
T1 construct: gene Itpr1; homotetramer, ~300 kDa subunit; Methods give NM_001270596, footnote NM_001007235
From the text: competitive [3H]IP3 radioligand binding on immunoprecipitated receptor on WT rIP3R1 | the apparent EC50 for binding was not markedly altered under these conditions

[2] = target: T2, WT rIP3R1 (Rattus norvegicus, UniProt C7E1V2, N602D); assay: as above
T2 construct: gene Itpr1; homotetramer, ~300 kDa subunit; Methods give NM_001270596, footnote NM_001007235

[3] = target: T3, WT mIP3R2 (Mus musculus, UniProt Q9Z329); assay: [3H]IP3 binding on immunoprecipitated receptor; conditions: 2.5 nM [3H]IP3 with 50 uM unlabelled IP3 for nonspecific binding; pH 8, 4 °C, 1 h; labelled compound
T3 construct: gene Itpr2; homotetramer

T1 sequence (C7E1V2 1-2748): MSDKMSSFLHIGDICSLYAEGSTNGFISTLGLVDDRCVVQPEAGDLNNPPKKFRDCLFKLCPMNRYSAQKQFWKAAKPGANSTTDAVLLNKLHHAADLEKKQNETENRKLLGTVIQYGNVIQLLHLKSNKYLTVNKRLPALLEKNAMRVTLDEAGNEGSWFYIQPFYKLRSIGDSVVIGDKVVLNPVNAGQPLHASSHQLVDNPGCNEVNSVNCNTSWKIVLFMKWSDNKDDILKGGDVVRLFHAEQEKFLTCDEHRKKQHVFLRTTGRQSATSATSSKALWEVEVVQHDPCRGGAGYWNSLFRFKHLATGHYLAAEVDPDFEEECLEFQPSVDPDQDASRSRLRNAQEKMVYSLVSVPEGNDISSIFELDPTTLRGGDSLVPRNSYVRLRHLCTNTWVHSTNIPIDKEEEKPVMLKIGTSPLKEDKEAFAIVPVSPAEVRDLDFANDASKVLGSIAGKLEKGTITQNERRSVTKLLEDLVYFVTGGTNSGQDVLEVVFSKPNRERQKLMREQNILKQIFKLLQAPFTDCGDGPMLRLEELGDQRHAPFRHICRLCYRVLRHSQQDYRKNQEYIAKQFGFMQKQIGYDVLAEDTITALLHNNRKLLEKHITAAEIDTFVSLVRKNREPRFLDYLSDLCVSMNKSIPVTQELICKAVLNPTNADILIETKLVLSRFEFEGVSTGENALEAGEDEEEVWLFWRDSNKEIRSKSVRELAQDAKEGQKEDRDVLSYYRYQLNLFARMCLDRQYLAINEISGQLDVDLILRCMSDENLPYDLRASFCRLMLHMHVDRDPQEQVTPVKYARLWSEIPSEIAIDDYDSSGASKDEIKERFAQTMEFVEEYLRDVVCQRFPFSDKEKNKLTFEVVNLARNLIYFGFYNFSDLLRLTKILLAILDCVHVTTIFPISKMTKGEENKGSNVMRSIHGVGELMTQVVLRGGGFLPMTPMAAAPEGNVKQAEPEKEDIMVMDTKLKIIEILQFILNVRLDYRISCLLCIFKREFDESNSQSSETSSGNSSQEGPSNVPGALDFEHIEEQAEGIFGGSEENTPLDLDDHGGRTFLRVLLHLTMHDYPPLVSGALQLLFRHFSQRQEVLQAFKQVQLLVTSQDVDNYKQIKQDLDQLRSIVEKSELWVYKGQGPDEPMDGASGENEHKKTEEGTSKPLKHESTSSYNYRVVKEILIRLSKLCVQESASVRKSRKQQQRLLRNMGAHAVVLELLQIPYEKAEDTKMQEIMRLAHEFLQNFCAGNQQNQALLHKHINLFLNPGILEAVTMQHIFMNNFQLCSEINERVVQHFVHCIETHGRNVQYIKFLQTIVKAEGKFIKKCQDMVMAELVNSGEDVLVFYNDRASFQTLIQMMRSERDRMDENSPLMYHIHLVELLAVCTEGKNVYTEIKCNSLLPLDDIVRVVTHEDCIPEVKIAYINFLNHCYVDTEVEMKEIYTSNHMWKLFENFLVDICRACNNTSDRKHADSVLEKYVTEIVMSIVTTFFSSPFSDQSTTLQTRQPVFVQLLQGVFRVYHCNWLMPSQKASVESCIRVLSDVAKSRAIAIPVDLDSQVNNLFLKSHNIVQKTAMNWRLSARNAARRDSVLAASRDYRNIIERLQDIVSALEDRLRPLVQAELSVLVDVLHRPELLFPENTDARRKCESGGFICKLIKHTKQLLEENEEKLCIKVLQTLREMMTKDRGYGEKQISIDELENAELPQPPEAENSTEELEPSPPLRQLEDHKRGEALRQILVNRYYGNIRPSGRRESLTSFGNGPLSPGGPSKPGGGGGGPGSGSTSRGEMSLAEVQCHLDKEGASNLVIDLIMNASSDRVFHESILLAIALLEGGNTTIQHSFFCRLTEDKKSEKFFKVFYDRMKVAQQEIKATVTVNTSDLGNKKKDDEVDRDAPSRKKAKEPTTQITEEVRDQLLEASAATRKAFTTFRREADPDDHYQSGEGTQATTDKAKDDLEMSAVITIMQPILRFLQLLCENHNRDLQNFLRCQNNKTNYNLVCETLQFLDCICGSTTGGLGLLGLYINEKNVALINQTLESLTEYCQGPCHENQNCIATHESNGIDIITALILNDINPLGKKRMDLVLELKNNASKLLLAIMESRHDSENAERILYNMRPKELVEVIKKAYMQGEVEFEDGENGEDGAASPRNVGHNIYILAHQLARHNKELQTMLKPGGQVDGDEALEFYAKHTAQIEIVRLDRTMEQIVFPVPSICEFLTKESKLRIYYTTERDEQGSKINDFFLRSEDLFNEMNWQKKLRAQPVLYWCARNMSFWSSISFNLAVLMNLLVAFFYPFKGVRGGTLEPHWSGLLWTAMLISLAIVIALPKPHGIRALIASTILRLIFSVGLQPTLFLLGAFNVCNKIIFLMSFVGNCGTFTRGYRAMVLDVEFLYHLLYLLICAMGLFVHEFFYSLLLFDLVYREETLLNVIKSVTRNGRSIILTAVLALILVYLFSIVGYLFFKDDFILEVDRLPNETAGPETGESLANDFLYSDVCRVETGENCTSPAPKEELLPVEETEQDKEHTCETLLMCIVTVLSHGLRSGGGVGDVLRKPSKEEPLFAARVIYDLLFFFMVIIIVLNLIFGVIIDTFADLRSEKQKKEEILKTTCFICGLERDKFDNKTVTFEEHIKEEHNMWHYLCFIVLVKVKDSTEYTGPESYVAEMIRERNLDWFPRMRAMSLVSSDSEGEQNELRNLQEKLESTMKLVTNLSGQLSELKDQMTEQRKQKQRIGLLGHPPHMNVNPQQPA

EC50 [1]: 45.7 ± 5.3 nM
EC50 [2]: 70.2 ± 1.6 nM
Structure (SMILES): O=P(O)(O)O[C@@H]1[C@H](O)[C@H](O)[C@@H](OP(=O)(O)O)[C@H](OP(=O)(O)O)[C@H]1O [IP3]
[3H]IP3 binding on immunoprecipitated receptor [3]: IP3 binding to mIP3R2^GS was comparable with WT mIP3R2
